Measured values published in patent US20250129344A1, “MODIFIED GLUTAMATE DEHYDROGENASE AND APPLICATION THEREOF” (Hunan Lier Biotech Co., Ltd., priority 2021, published 2025).
Residue numbers refer to the chain shown, from its start.

Columns and labels:
[1] = target: T1, Lysinibacillus sphaericus glutamate dehydrogenase (LsGluDH, SEQ ID NO: 2) variant A175G-I133V-V173S-A182R, SEQ ID NO: 38 (Lysinibacillus pinottii, UniProt A0ABT2DNY0, A175G/A182R/I133V/V173S); experiment: Dynamic properties (Michaelis-Menten) of LsGluDH mutant, PPO reductive amination; assay type: biochemical; details: PPO 5-100 mM, NADPH 0.15 mM, NH4Cl 50 mM, PBS pH 7.5, 30° C., diluted crude enzyme, 340 nm
T1 sequence (A0ABT2DNY0 1-457 A175G/A182R/I133V/V173S): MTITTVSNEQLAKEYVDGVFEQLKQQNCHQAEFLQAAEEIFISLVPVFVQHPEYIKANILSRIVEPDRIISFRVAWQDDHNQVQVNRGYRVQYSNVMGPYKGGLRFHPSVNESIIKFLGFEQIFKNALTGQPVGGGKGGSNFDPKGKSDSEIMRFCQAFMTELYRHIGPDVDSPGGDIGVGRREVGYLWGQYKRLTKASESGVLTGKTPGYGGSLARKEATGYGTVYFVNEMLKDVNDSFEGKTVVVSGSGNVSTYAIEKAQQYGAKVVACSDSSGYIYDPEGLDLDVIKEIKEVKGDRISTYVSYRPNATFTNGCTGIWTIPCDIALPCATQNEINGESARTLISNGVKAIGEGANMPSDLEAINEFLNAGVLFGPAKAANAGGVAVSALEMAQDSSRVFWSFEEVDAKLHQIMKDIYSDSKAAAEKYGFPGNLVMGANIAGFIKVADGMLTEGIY
Experimental: (§1) A plurality of reaction systems (200 μL) comprising PBS of 100 mM pH 7.5 (pH was adjusted with aqueous ammonia solution), NADPH (reductive) of 0.15 mM, NH4Cl of 50 mM, diluted (500 folds) crude enzyme solution of 10% volume and the substrate PPO at various concentrations (5-100 mM) were formulated on a 96-well plate. The intensity of the UV absorption at 340 nm was detected at 30° C., and the rate of change in absorption over time (mA/min) was recorded. The obtained parameters were plugged into Michaelis-Menten equation, in which the reaction velocity was calculated with the rate of change in absorption.
(§2) The mutants were prepared with the coding nucleic acid of LsGluDH (SEQ ID NO: 2) as the template, and the enzyme activities and the dynamic parameters Vmax and Km were measured, according to the method of Example 1. The resulted mutants and the enzyme activities and the dynamic parameters thereof are shown in Table 2, and the relative enzyme activity means the percentage of the enzyme activity of the mutant to the enzyme activity of the mutant of SEQ ID NO: 31.

[2] = target: T2, Lysinibacillus sphaericus glutamate dehydrogenase (LsGluDH, SEQ ID NO: 2) variant A175G-I133V, SEQ ID NO: 33 (Lysinibacillus pinottii, UniProt A0ABT2DNY0, A175G/I133V); experiment: as above; assay type: biochemical; details: PPO 5-100 mM, NADPH 0.15 mM, NH4Cl 50 mM, PBS pH 7.5, 30° C., diluted crude enzyme, 340 nm
T2 sequence (A0ABT2DNY0 1-457 A175G/I133V): T1 sequence (A0ABT2DNY0 1-457 A175G/A182R/I133V/V173S) with S173V, R182A
Experimental: as §1, §2

CP(=O)(O)CCC(=O)C(=O)O [PPO, 2-carbonyl-4-(hydroxymethylphosphono) butyric acid]
Km [1]: 26 mM | Vmax [1]: 38 mA/min | Km [2]: 35 mM | Vmax [2]: 39 mA/min
